Test results: paper PMC7588595, “Small-molecule active pharmaceutical ingredients of approved cancer therapeutics inhibit human aspartate/asparagine-β-hydroxylase” (Bioorganic & Medicinal Chemistry, 2020)
Read-outs that look alike come from different tables or passages of the source.

Biological target: T1, human AspH (His6-AspH315–758) (Homo sapiens, UniProt Q12797)
T1 construct: N-Terminally His6-tagged human AspH315–758 (His6-AspH315–758) was produced in Escherichia coli BL21 (DE3) cells; made in house; host or cells: Escherichia coli BL21 (DE3), pET-28a(+) vector
T1 sequence (Q12797 315-758): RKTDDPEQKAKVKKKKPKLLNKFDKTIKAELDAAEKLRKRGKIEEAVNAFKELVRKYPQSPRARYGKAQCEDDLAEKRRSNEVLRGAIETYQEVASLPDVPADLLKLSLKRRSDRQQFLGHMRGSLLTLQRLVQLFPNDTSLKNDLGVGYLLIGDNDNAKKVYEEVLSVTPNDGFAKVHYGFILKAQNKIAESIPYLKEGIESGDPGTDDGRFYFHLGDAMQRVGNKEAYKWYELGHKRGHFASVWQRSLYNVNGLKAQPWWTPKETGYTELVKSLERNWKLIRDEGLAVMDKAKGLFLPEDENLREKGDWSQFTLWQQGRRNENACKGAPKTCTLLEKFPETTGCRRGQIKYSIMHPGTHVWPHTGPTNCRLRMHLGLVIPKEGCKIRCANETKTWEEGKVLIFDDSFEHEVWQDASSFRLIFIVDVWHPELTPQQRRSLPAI
Assay: SPE-MS AspH inhibition assay (hFX-CP101-119 substrate hydroxylation)
Type: biochemical
Conditions: for Plate 1 (% inhibition) / Plate 1 (% conversion) / Plate 1-duplicate (% inhibition) / Plate 1-duplicate (% conversion): AspH-inhibitor screening; for Plate 1 (% inhibition): 384-well Plate 1; for Plate 1 (% conversion): 384-well Plate 1, substrate conversion; for Plate 1-duplicate (% conversion): substrate conversion

Row | Compound | Plate 1 (% inhibition) [%] | Plate 1 (% conversion) [%] | Plate 1-duplicate (% inhibition) [%] | Plate 1-duplicate (% conversion) [%] | IC50 (50 nM His6-AspH315–758, 1 μM hFX-CP101–119, 100 μM LAA, 3 μM 2OG, 2 μM FAS, 50 mM HEPES pH 7.5, 20 °C, read-out: IC50) [µM] | IC50 (read-out: IC50 at 10 μM substrate, 10 μM hFX-CP101–119 and 10 μM 2OG instead of 1 μM hFX-CP101–119 and 3 μM 2OG) [µM] | IC50 (read-out: IC50 at 20 μM Fe(II), 20 μM Fe(II) instead of 2 μM Fe(II)) [µM] | IC50 (read-out: IC50 at 200 μM 2OG, 200 μM 2OG instead of 3 μM 2OG) [µM]
1 | COCCNCc1ccc(-c2cc3nccc(Oc4ccc(NC(=S)NC(=O)Cc5ccc(F)cc5)cc4F)c3s2)nc1 [MGCD-265] | 74.52 | 15.34 | 67.97 | 18.33 | – | – | – | –
2 | C=CCn1c(=O)c2cnc(Nc3ccc(N4CCN(C)CC4)cc3)nc2n1-c1cccc(C(C)(C)O)n1 [MK1775] | 5.75 | 47.09 | 1.85 | 51.12 | – | – | – | –
3 | O=C(O)CC[C@H]1CC[C@@](c2cc(F)ccc2F)(S(=O)(=O)c2ccc(Cl)cc2)CC1 [MK-0752] | 11.87 | 44.27 | 9.89 | 47.14 | – | – | – | –
4 | NC1(c2ccc(-c3nc4ccn5c(=O)[nH]nc5c4cc3-c3ccccc3)cc2)CCC1 [MK-2206] | -21.29 | 59.58 | -13.95 | 58.96 | – | – | – | –
5 | Cl.NC(=O)c1cccc2cn(-c3ccc([C@@H]4CCCNC4)cc3)nc12 [MK-4827, HCl salt] | 7.39 | 46.34 | 9.73 | 47.22 | – | – | – | –
6 | NS(=O)(=O)OC[C@@H]1C[C@@H](n2ccc3c(N[C@H]4CCc5ccccc54)ncnc32)C[C@@H]1O [MLN4924] | 2.38 | 48.65 | -0.45 | 52.27 | – | – | – | –
7 | COc1cc(Nc2ncc3c(n2)-c2ccc(Cl)cc2C(c2c(F)cccc2OC)=NC3)ccc1C(=O)O [MLN8237_Alisertib] | 2.09 | 48.78 | 7.11 | 48.51 | – | – | – | –
8 | Cc1ccc(NC(=O)c2ccc(CN3CCN(C)CC3)cc2)cc1Nc1nc(-c2cccnc2)cs1 [Masitinib] | -15.10 | 56.72 | -11.47 | 57.73 | – | – | – | –
9 | CC(=O)O[C@]1(C(C)=O)CC[C@H]2[C@@H]3C=C(C)C4=CC(=O)CC[C@]4(C)[C@H]3CC[C@@]21C [Megestrol acetate] | -14.51 | 56.45 | 7.27 | 48.44 | – | – | – | –
10 | Cl.N[C@@H](Cc1ccc(N(CCCl)CCCl)cc1)C(=O)O [Melphalan hydrochloride] | 8.23 | 45.95 | 3.67 | 50.22 | – | – | – | –
11 | N[C@@H](Cc1ccc(N(CCCl)CCCl)cc1)C(=O)O [Melphalan] | 9.41 | 45.40 | 3.88 | 50.12 | – | – | – | –
12 | S=c1[nH]cnc2nc[nH]c12 [Mercaptopurine] | 7.41 | 46.33 | 10.69 | 46.74 | – | – | – | –
13 | CN(C)C(=N)NC(=N)N.Cl [Metformin hydrochloride aq] | 5.05 | 47.42 | 7.45 | 48.35 | – | – | – | –
14 | CN(Cc1cnc2nc(N)nc(N)c2n1)c1ccc(C(=O)N[C@@H](CCC(=O)O)C(=O)O)cc1 [Methotrexate] | 15.11 | 42.77 | 17.38 | 43.42 | – | – | – | –
15 | COc1c2occc2cc2ccc(=O)oc12 [Methoxsalen] | 0.45 | 49.54 | 1.60 | 51.25 | – | – | – | –
16 | C[C@H]1C[C@@H]2[C@H]([C@@H](O)C[C@@]3(C)[C@H]2CC[C@]3(O)C(=O)CO)[C@@]2(C)C=CC(=O)C=C12 [Methylprednisolone] | 8.67 | 45.75 | 6.32 | 48.91 | – | – | – | –
17 | CO[C@@H]1[C@H](N(C)C(=O)c2ccccc2)C[C@H]2O[C@]1(C)n1c3ccccc3c3c4c(c5c6ccccc6n2c5c31)C(=O)NC4 [Midostaurin, reference compound] | – | – | – | – | 9.43 ± 3.07 | 6.02 ± 1.32 | 7.28 ± 0.9 | 12.4 ± 2.9
18 | CO[C@@]12[C@H](COC(N)=O)C3=C(C(=O)C(C)=C(N)C3=O)N1C[C@@H]1N[C@@H]12 [Mitomycin] | 1.59 | 49.02 | 2.59 | 50.76 | – | – | – | –
19 | Clc1ccc(C(c2ccccc2Cl)C(Cl)Cl)cc1 (stereo not drawn) [Mitotane] | 14.44 | 43.08 | 17.86 | 43.18 | – | – | – | –
20 | O=C1c2c(O)ccc(O)c2C(=O)c2c(NCCNCCO)ccc(NCCNCCO)c21 [Mitoxantrone] | -29.89 | 63.55 | -22.19 | 63.05 | – | – | – | –
21 | CC1(C)CNc2cc(NC(=O)c3cccnc3NCc3ccncc3)ccc21.O=P(O)(O)O.O=P(O)(O)O [Motesanib Diphosphate (AMG-706)] | 35.35 | 33.43 | 26.44 | 38.93 | – | – | – | –
22 | CCNC(=O)c1noc(-c2cc(C(C)C)c(O)cc2O)c1-c1ccc(CN2CCOCC2)cc1 [NVP-AUY922] | -7.77 | 53.34 | -12.32 | 58.15 | – | – | – | –
23 | Cn1c(=O)n(-c2ccc(C(C)(C)C#N)cc2)c2c3cc(-c4cnc5ccccc5c4)ccc3ncc21 [NVP-BEZ235_Dactolisib] | 5.14 | 47.38 | 3.83 | 50.14 | – | – | – | –
24 | CCN1CCN(c2ccc(Nc3cc(N(C)C(=O)Nc4c(Cl)c(OC)cc(OC)c4Cl)ncn3)cc2)CC1 [NVP-BGJ398] | -4.10 | 51.64 | -20.49 | 62.20 | – | – | – | –
25 | Cc1c(C(=O)Nc2ccc(N3C[C@@H](C)O[C@@H](C)C3)nc2)cccc1-c1ccc(OC(F)(F)F)cc1.O=P(O)(O)O.O=P(O)(O)O [NVP-LDE225 (Diphosphate salt)] | -20.13 | 59.05 | -19.69 | 61.81 | – | – | – | –
26 | COc1nc(N)nc2c1ncn2[C@@H]1O[C@H](CO)[C@@H](O)[C@@H]1O [Nelarabine] | -1.21 | 50.31 | 1.44 | 51.33 | – | – | – | –
27 | Cc1cn(-c2cc(NC(=O)c3ccc(C)c(Nc4nccc(-c5cccnc5)n4)c3)cc(C(F)(F)F)c2)cn1 [Nilotinib] | -10.38 | 54.54 | -7.89 | 55.95 | – | – | – | –
